{"source": "ChEMBL document CHEMBL2412968", "about": "“Tetrazole-based deoxyamodiaquines: synthesis, ADME/PK profiling and pharmacological evaluation as potential antimalarial agents” (Bioorg Med Chem, 2013)", "data": [{"tested_on": "CHO", "experiment": "Cytotoxicity against CHO cells by MTT assay", "format": "cell-based", "conditions": "Cricetulus griseus; call rule not given here", "units": {"IC50": "µM"}, "values": [{"smiles": "CCN(CC)C(c1cccc(Nc2ccnc3cc(Cl)ccc23)c1)c1nnnn1C(C)(C)C", "note": "(stereo not given)", "IC50": 111}]}, {"molecular_target": "Cytochrome P450 2E1 (Homo sapiens, UniProt P05181)", "sequence (P05181 whole entry)": "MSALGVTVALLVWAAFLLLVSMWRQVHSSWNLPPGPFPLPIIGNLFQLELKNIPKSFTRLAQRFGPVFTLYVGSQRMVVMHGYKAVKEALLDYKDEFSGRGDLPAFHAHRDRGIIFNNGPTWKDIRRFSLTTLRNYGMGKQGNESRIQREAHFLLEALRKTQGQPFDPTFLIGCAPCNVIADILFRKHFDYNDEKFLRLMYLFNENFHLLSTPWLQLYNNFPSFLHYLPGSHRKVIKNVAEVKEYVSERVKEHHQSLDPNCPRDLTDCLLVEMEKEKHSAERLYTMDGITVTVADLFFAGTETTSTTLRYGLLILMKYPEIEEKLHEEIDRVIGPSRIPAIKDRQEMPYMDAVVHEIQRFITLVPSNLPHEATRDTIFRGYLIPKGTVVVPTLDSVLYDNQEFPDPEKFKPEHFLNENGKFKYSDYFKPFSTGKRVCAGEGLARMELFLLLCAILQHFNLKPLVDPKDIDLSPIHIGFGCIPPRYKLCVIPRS", "experiment": "Inhibition of CYP2E1 in human liver microsomes assessed as chlorzoxazone 6-hydroxylation after 20 mins by LC-MS analysis", "format": "ADME, Microsome", "conditions": "not given", "units": {"IC50": "µM"}, "values": [{"smiles": "CCN(CC)C(c1cccc(Nc2ccnc3cc(Cl)ccc23)c1)c1nnnn1C(C)(C)C", "note": "(stereo not given)", "IC50": "> 20"}]}, {"molecular_target": "T1, Cytochrome P450 2B6 (Homo sapiens, UniProt P20813)", "T1 sequence (P20813 whole entry)": "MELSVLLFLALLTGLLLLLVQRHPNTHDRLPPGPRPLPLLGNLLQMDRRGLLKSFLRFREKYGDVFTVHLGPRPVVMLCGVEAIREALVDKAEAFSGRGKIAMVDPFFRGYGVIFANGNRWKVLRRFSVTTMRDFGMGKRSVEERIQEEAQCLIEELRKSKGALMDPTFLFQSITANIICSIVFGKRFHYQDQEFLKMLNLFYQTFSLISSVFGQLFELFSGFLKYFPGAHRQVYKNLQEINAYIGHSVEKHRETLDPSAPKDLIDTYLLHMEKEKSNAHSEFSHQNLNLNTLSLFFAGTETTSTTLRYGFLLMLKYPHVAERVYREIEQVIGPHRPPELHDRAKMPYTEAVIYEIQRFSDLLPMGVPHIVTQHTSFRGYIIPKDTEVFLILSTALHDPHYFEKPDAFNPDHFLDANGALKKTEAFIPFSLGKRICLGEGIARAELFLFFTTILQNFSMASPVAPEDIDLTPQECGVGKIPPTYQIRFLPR", "experiment": "Inhibition of CYP2B6 in human liver microsomes assessed as bupropion hydroxylation after 20 mins by LC-MS analysis", "format": "ADME, Microsome", "conditions": "not given", "units": {"IC50": "µM"}, "values": [{"smiles": "CCN(CC)C(c1cccc(Nc2ccnc3cc(Cl)ccc23)c1)c1nnnn1C(C)(C)C", "note": "(stereo not given)", "IC50": "> 20"}]}, {"molecular_target": "T2, Cytochrome P450 2A6 (Homo sapiens, UniProt P11509)", "T2 sequence (P11509 whole entry)": "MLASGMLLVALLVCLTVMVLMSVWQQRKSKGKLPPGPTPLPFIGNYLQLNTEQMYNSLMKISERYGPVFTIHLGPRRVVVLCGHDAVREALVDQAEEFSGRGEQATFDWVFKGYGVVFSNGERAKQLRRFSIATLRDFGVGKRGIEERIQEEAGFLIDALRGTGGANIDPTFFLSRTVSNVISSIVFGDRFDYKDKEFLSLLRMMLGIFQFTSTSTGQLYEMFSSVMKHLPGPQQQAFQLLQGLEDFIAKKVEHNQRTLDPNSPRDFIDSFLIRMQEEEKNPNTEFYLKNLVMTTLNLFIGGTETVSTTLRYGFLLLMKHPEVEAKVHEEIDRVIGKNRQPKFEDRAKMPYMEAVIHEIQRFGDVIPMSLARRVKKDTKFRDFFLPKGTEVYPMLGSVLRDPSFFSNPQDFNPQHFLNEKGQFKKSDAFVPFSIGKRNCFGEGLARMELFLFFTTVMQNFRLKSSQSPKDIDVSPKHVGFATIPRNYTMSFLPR", "experiment": "Inhibition of CYP2A6 in human liver microsomes assessed as coumarin 7-hydroxylation after 20 mins by LC-MS analysis", "format": "ADME, Microsome", "conditions": "not given", "units": {"IC50": "µM"}, "values": [{"smiles": "CCN(CC)C(c1cccc(Nc2ccnc3cc(Cl)ccc23)c1)c1nnnn1C(C)(C)C", "note": "(stereo not given)", "IC50": "> 20"}]}, {"molecular_target": "Cytochrome P450 2D6 (Homo sapiens, UniProt P10635)", "sequence (P10635 whole entry)": "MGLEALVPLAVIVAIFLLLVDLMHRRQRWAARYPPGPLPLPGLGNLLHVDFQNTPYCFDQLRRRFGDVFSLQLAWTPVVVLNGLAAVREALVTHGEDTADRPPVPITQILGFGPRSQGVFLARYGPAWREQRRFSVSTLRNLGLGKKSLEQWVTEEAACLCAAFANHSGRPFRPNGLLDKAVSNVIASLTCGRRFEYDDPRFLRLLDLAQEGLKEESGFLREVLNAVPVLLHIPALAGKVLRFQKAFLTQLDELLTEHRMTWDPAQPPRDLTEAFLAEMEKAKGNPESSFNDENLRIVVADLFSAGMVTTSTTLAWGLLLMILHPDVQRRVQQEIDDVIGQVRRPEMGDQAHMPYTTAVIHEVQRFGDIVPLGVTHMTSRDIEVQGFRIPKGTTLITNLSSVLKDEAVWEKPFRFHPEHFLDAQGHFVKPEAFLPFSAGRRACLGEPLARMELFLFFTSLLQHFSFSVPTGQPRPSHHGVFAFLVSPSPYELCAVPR", "experiment": "Inhibition of CYP2D6 in human liver microsomes assessed as bufuralol 1'-hydroxylation after 20 mins by LCMS analysis", "format": "ADME, Microsome", "conditions": "not given", "units": {"IC50": "µM"}, "values": [{"smiles": "CCN(CC)C(c1cccc(Nc2ccnc3cc(Cl)ccc23)c1)c1nnnn1C(C)(C)C", "note": "(stereo not given)", "IC50": 2.31}]}, {"molecular_target": "Cytochrome P450 2C9 (Homo sapiens, UniProt P11712)", "sequence (P11712 whole entry)": "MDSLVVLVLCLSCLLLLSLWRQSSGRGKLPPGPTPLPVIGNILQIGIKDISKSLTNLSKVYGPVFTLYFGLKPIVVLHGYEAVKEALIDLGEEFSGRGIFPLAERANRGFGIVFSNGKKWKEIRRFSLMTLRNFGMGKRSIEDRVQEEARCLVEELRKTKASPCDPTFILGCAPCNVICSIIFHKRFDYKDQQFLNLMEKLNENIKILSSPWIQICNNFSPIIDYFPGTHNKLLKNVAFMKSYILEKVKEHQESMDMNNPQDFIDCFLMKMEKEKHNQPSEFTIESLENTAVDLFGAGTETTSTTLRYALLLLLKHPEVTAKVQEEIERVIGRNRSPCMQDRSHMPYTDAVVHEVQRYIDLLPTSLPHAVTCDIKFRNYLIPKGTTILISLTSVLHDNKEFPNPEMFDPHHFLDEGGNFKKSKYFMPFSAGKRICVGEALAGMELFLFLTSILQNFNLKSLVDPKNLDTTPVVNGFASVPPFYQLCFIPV", "experiment": "Inhibition of CYP2C9 in human liver microsomes assessed as diclofenac 4'-hydroxylation after 20 mins by LCMS analysis", "format": "ADME, Microsome", "conditions": "not given", "units": {"IC50": "µM"}, "values": [{"smiles": "CCN(CC)C(c1cccc(Nc2ccnc3cc(Cl)ccc23)c1)c1nnnn1C(C)(C)C", "note": "(stereo not given)", "IC50": 2.43}]}, {"molecular_target": "T3, Cytochrome P450 2C8 (Homo sapiens, UniProt P10632)", "T3 sequence (P10632 whole entry)": "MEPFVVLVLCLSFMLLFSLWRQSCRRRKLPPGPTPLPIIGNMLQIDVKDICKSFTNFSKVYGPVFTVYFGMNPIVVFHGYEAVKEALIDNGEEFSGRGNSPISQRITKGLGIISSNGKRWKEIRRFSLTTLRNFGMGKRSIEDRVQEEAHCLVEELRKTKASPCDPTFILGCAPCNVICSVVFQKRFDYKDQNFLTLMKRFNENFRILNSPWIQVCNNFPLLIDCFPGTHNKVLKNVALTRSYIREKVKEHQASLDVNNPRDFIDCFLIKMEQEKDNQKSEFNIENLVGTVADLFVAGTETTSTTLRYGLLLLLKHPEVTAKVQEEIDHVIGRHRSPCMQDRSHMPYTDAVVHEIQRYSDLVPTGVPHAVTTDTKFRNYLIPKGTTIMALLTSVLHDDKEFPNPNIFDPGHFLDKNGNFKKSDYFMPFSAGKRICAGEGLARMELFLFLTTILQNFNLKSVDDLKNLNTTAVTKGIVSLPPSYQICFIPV", "experiment": "Inhibition of CYP2C8 in human liver microsomes assessed as paclitaxel 6alpha-hydroxylation after 20 mins by LC-MS analysis", "format": "ADME, Microsome", "conditions": "not given", "units": {"IC50": "µM"}, "values": [{"smiles": "CCN(CC)C(c1cccc(Nc2ccnc3cc(Cl)ccc23)c1)c1nnnn1C(C)(C)C", "note": "(stereo not given)", "IC50": 0.22}]}, {"molecular_target": "T4, Cytochrome P450 1A2 (Homo sapiens, UniProt P05177)", "T4 sequence (P05177 whole entry)": "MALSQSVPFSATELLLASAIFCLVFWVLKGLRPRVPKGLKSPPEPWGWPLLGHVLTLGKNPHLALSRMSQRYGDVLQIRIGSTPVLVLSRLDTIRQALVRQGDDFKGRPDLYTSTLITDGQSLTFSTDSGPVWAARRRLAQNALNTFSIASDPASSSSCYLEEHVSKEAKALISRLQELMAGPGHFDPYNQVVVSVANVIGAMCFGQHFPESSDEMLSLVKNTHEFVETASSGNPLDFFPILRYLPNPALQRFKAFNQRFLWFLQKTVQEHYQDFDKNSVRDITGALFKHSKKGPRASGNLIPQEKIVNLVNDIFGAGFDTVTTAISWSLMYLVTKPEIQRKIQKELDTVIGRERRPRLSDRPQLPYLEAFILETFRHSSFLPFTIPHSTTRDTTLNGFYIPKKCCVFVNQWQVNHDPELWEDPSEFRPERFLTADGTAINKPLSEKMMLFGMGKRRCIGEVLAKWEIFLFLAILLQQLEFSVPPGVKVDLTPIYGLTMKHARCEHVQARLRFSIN", "experiment": "Inhibition of CYP1A2 in human liver microsomes assessed as phenacetin O-deethylation after 20 mins by LC-MS analysis", "format": "ADME, Microsome", "conditions": "not given", "units": {"IC50": "µM"}, "values": [{"smiles": "CCN(CC)C(c1cccc(Nc2ccnc3cc(Cl)ccc23)c1)c1nnnn1C(C)(C)C", "note": "(stereo not given)", "IC50": 4.33}]}, {"tested_on": "Liver microsomes", "experiment": "Drug metabolism in human liver microsomes assessed as formation of N-dealkylation product at 5 uM after 1 hr", "format": "ADME, Microsome", "conditions": "not given", "values": [{"smiles": "CCN(CC)C(c1cccc(Nc2ccnc3cc(Cl)ccc23)c1)c1nnnn1C(C)(C)C", "note": "(stereo not given)", "Drug metabolism": "Active"}]}, {"tested_on": "Liver microsomes", "experiment": "Metabolic stability of the compound in rat liver microsomes at 1 uM after 40 mins", "format": "ADME, Microsome", "conditions": "not given", "values": [{"smiles": "CCN(CC)C(c1cccc(Nc2ccnc3cc(Cl)ccc23)c1)c1nnnn1C(C)(C)C", "note": "(stereo not given)", "Stability": "Unstable"}]}, {"tested_on": "Hepatocyte", "experiment": "Drug metabolism in human hepatocytes assessed as formation of N-dealkylation product at 5 uM after 1 hr", "format": "ADME, cell-based", "conditions": "not given", "values": [{"smiles": "CCN(CC)C(c1cccc(Nc2ccnc3cc(Cl)ccc23)c1)c1nnnn1C(C)(C)C", "note": "(stereo not given)", "Drug metabolism": "Active"}]}, {"tested_on": "Liver microsomes", "experiment": "Metabolic stability of the compound in human liver microsomes at 1 uM after 40 mins", "format": "ADME, Microsome", "conditions": "not given", "values": [{"smiles": "CCN(CC)C(c1cccc(Nc2ccnc3cc(Cl)ccc23)c1)c1nnnn1C(C)(C)C", "note": "(stereo not given)", "Stability": "Unstable"}]}, {"tested_on": "Plasmodium falciparum", "experiment": "Antiplasmodial activity chloroquine-resistant Plasmodium falciparum W2 using YOYO-1 staining after 48 hrs by FACS analysis", "format": "functional, organism-based", "conditions": "W2, 48 h", "units": {"IC50": "µM"}, "values": [{"smiles": "CN(C)C(c1cccc(Nc2ccnc3cc(Cl)ccc23)c1)c1nnnn1CCN1CCOCC1", "note": "(stereo not given)", "IC50": 0.544}, {"smiles": "CCN(CC)C(c1cccc(Nc2ccnc3cc(Cl)ccc23)c1)c1nnnn1C(C)(C)C", "note": "(stereo not given)", "IC50": 0.066}]}, {"tested_on": "Plasmodium falciparum", "experiment": "Antiplasmodial activity chloroquine-resistant Plasmodium falciparum K1 infected in human A+ erythrocytes assessed as reduction of [3H]hypoxanthine incorporation after 24 hrs by scintillation counting", "format": "functional, organism-based", "conditions": "not given", "units": {"IC50": "µM"}, "values": [{"smiles": "CN(C)C(c1cccc(Nc2ccnc3cc(Cl)ccc23)c1)c1nnnn1CCN1CCOCC1", "note": "(stereo not given)", "IC50": 0.379}, {"smiles": "CCN(CC)C(c1cccc(Nc2ccnc3cc(Cl)ccc23)c1)c1nnnn1C(C)(C)C", "note": "(stereo not given)", "IC50": 0.006}]}, {"tested_on": "Plasmodium falciparum", "experiment": "Antiplasmodial activity chloroquine-sensitive Plasmodium falciparum 3D7 infected in human A+ erythrocytes assessed as reduction of [3H]hypoxanthine incorporation after 24 hrs by scintillation counting", "format": "functional, organism-based", "conditions": "not given", "units": {"IC50": "µM"}, "values": [{"smiles": "CN(C)C(c1cccc(Nc2ccnc3cc(Cl)ccc23)c1)c1nnnn1CCN1CCOCC1", "note": "(stereo not given)", "IC50": 0.379}, {"smiles": "CCN(CC)C(c1cccc(Nc2ccnc3cc(Cl)ccc23)c1)c1nnnn1C(C)(C)C", "note": "(stereo not given)", "IC50": 0.1}]}, {"tested_on": "not listed separately", "experiment": "physchem", "conditions": "phosphate buffered saline, pH 7.4", "units": {"solubility kinetic at 2 h": "µM"}, "values": [{"smiles": "CCN(CC)C(c1cccc(Nc2ccnc3cc(Cl)ccc23)c1)c1nnnn1C(C)(C)C", "note": "(stereo not given)", "solubility kinetic at 2 h": "< 5"}]}, {"tested_on": "not listed separately", "experiment": "physchem", "conditions": "0.01 M HCl, pH 2", "units": {"solubility kinetic at 2 h": "µM"}, "values": [{"smiles": "CCN(CC)C(c1cccc(Nc2ccnc3cc(Cl)ccc23)c1)c1nnnn1C(C)(C)C", "note": "(stereo not given)", "solubility kinetic at 2 h": "> 200"}]}]}
